# Measured values as given in publication PMC4792962, “A unified mechanism for proteolysis and autocatalytic activation in the 20S proteasome” (Nature Communications, 2016).
# Substitutions are numbered along the chain they refer to.
# Columns and labels:
# [1] = molecular target: T1, yeast 20S proteasome core particle (yCP), β5 active site (ChT-L activity) (Saccharomyces cerevisiae, UniProt P23724+P30656); test: fluorescence inhibition assay, Suc-LLVY-AMC; type: biochemical
# T1 construct: gene PRE2; native 20S core particle purified from yeast (α7β7β7α7, 28 subunits), untagged; β5 mature after autocatalytic propeptide removal; in 'pp trans' mutants the β5 propeptide is expressed separately; with Proteasome subunit beta type-1; Proteasome subunit beta type-2; Proteasome subunit beta type-3; Proteasome subunit beta type-4; Proteasome subunit beta type-7; Proteasome subunit alpha type-1; Proteasome subunit alpha type-2; Proteasome subunit alpha type-3; Proteasome subunit alpha type-4; Proteasome subunit alpha type-5; Proteasome subunit alpha type-6; Probable proteasome subunit alpha type-7
# T1 sequence (P30656 76-287): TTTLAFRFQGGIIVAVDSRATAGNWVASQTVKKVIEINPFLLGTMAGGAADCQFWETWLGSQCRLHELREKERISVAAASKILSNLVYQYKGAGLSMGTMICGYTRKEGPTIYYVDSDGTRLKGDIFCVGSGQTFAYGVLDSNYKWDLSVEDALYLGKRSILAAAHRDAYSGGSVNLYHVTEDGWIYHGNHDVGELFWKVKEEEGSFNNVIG
# T1 sequence (P23724 20-241): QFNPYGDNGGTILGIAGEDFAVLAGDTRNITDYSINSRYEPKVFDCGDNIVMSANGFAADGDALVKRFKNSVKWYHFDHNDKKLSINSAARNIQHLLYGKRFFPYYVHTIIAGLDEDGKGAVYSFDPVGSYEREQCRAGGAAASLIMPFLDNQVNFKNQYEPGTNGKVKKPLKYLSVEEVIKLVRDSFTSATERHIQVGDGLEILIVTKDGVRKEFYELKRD
# [2] = molecular target: T2, yeast 20S proteasome core particle (yCP), β5 active site (ChT-L activity) (Saccharomyces cerevisiae, UniProt P23724+P30656, P30656:T76S); test: fluorescence inhibition assay, Suc-LLVY-AMC; type: biochemical
# T2 construct: gene PRE2; native 20S core particle purified from yeast (α7β7β7α7, 28 subunits), untagged; β5 mature after autocatalytic propeptide removal; in 'pp trans' mutants the β5 propeptide is expressed separately; with Proteasome subunit beta type-1; Proteasome subunit beta type-2; Proteasome subunit beta type-3; Proteasome subunit beta type-4; Proteasome subunit beta type-7; Proteasome subunit alpha type-1; Proteasome subunit alpha type-2; Proteasome subunit alpha type-3; Proteasome subunit alpha type-4; Proteasome subunit alpha type-5; Proteasome subunit alpha type-6; Probable proteasome subunit alpha type-7
# T2 sequence (P30656 76-287 T76S): T1 sequence (P30656 76-287) with T1S
# T2 sequence (P23724 20-241): T1 sequence (P23724 20-241)
# [3] = molecular target: T3, yeast 20S proteasome core particle (yCP), β5 active site (ChT-L activity) (Saccharomyces cerevisiae, UniProt P23724+P30656, P30656:D243N); test: X-ray crystal structure; type: binding; details: crystal soak; covalent (morpholine ring with Thr1)
# T3 construct: gene PRE2; native 20S core particle purified from yeast (α7β7β7α7, 28 subunits), untagged; β5 mature after autocatalytic propeptide removal; in 'pp trans' mutants the β5 propeptide is expressed separately; with Proteasome subunit beta type-1; Proteasome subunit beta type-2; Proteasome subunit beta type-3; Proteasome subunit beta type-4; Proteasome subunit beta type-7; Proteasome subunit alpha type-1; Proteasome subunit alpha type-2; Proteasome subunit alpha type-3; Proteasome subunit alpha type-4; Proteasome subunit alpha type-5; Proteasome subunit alpha type-6; Probable proteasome subunit alpha type-7
# T3 sequence (P30656 76-287 D243N): T1 sequence (P30656 76-287) with D168N
# T3 sequence (P23724 20-241): T1 sequence (P23724 20-241)
# [4] = molecular target: T4, yeast 20S proteasome core particle (yCP), β5 active site (ChT-L activity) (Saccharomyces cerevisiae, UniProt P23724+P30656, P30656:K108A); test: X-ray crystal structure; type: binding; details: propeptide expressed in trans, covalent
# T4 construct: gene PRE2; native 20S core particle purified from yeast (α7β7β7α7, 28 subunits), untagged; β5 mature after autocatalytic propeptide removal; in 'pp trans' mutants the β5 propeptide is expressed separately; with Proteasome subunit beta type-1; Proteasome subunit beta type-2; Proteasome subunit beta type-3; Proteasome subunit beta type-4; Proteasome subunit beta type-7; Proteasome subunit alpha type-1; Proteasome subunit alpha type-2; Proteasome subunit alpha type-3; Proteasome subunit alpha type-4; Proteasome subunit alpha type-5; Proteasome subunit alpha type-6; Probable proteasome subunit alpha type-7
# T4 sequence (P30656 76-287 K108A): T1 sequence (P30656 76-287) with K33A
# T4 sequence (P23724 20-241): T1 sequence (P23724 20-241)
SMILES,IC50 [1] [nM],IC50 [2] [nM],X-ray crystal structure [3],X-ray crystal structure [4]
CC(C)C[C@H](NC(=O)[C@H](Cc1ccccc1)NC(=O)c1cnccn1)B(O)O [bortezomib],174 ± 29,649 ± 176,,
CC(C)C[C@H](NC(=O)[C@H](CCc1ccccc1)NC(=O)CN1CCOCC1)C(=O)N[C@@H](Cc1ccccc1)C(=O)N[C@@H](CC(C)C)C(=O)[C@@]1(C)CO1 [carfilzomib],,,Soaking the β5-D166N crystals with carfilzomib and MG132 resulted in covalent modification of Thr1,crystal structure of the β5-K33A pp trans mutant in complex with carfilzomib
